Consider 35 molecules from US7452905B2, “Phenylalanine derivatives” (Ajinomoto Co., Inc., priority 2000, dated 2008).

This assay concerns the target T1, integrin α4β7 (Homo sapiens, UniProt P13612+P26010).
T1 construct: lymphoma cell strain RPMI-8866 of human B cells, known to express integrin α4β7; endogenous in cells; host or cells: RPMI-8866
T1 sequence (P13612 34-1032): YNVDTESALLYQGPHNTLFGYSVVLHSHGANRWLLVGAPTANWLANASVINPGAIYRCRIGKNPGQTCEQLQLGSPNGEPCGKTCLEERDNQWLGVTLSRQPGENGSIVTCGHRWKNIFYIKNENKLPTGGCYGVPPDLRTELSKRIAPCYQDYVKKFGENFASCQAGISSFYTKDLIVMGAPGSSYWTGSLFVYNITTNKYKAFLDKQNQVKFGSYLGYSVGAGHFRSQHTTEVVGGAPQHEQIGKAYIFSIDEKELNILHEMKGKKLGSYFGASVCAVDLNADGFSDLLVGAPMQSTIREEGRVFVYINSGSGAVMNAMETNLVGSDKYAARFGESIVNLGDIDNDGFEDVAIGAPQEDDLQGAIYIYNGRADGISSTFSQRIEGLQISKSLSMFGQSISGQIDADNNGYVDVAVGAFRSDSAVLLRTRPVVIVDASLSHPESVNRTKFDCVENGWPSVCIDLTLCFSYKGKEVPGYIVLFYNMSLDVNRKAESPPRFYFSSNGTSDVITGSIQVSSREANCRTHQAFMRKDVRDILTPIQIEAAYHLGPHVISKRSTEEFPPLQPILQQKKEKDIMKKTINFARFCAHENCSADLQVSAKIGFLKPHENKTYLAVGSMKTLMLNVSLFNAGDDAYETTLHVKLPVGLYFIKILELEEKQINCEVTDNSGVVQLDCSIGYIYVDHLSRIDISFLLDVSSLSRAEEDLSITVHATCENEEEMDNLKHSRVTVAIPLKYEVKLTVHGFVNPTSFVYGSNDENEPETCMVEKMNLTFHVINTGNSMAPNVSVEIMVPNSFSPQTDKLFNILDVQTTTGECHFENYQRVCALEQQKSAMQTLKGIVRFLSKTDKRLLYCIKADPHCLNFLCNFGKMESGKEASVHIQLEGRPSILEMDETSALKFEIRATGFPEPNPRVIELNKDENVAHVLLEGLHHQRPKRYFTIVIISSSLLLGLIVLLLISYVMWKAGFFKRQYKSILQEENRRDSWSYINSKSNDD
T1 sequence (P26010 20-798): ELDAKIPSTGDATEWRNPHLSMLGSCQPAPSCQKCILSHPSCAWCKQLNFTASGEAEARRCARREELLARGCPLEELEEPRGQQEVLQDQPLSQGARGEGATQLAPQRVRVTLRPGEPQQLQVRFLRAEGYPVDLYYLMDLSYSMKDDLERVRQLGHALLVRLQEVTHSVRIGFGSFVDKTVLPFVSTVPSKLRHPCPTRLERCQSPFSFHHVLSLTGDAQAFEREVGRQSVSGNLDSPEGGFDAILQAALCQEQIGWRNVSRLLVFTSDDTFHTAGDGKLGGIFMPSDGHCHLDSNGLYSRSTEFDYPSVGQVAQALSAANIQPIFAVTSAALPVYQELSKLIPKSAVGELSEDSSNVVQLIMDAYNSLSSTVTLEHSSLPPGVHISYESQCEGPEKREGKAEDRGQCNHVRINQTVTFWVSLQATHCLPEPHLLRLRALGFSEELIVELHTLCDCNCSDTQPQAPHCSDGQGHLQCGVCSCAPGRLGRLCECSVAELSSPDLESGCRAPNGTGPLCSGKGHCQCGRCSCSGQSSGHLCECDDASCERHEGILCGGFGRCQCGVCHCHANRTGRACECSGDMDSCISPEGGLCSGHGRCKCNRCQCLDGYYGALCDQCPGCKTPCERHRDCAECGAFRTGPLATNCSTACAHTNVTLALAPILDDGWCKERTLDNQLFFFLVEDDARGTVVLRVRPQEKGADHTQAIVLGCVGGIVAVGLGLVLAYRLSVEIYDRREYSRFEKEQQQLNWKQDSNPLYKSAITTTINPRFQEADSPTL
Briefly: VCAM antagonistic activity (VCAM-1/α4β7 binding assay), RPMI-8866 cells binding to VCAM-1. The assay is classed as cell-based. The conditions noted are these: RPMI-8866 cells binding to recombinant human VCAM-1, binding buffer with 4 mM MnCl2; 50% binding inhibition; read-out: Antagonistic Activity IC50 α 4 β 7/VCAM. On the procedure: VCAM Antagonistic Activity (VCAM-1/α4β7 Binding Assay)
The capacity of a test substance antagonistic to the binding of lymphoma cell strain RPMI-8866 of human B cells, known to express integrin α4β7, to VCAM-1 was determined. 100 μl/well of a solution (500 ng/ml) of recombinant human VCAM-1 (R & D systems) solution diluted with buffer A (0.1 M NaHCO3, pH 9.6) was added to a micro titer plate having 96 wells (Nunc Maxisorp). After the incubation at 4° C. overnight, unbound VCAM-1 was removed by washing once with PBS. After completion of the washing, a buffer (buffer B) obtained by diluting Block Ace (Dainippon Pharmaceutical Co., Ltd.) with PBS to ¼ concentration was added in an amount of 150 μl/well. After the incubation at room temperature for 1 hour, buffer B was removed and the plate was washed with PBS once.
RPMI-8866 cells were incubated in Dulbecco modified Eagle medium containing 10 μg/ml of Calcein-AM (Wako Pure Chemical Industries, Ltd.) (SIGMA, hereinafter referred to as “DMEM”) at 37° C. for 30 minutes to label with fluorescence. The cells were again suspended in a binding buffer (20 mM HEPES, DMEM containing 0.1% BSA) containing 4 mM of MnCl2.
50 μl of a test substance of various concentrations obtained by the dilution with the binding buffer was added to the plate. Immediately thereafter, 50 μl (final volume: 100 μl/well) of the fluorescent RPMI-8866 cells (4×10^6 cells/ml) were added thereto, and they were incubated at room temperature for 30 minutes. After the shaking on a plate shaker (IKA MTS-4) at 800 rpm for 30 seconds, the solution was immediately removed to remove the unbound cells. The fluorescence quantity of the bound cells remaining in the wells was determined with a fluorescent plate reader (Wallac 1420 ARVO multi-label counter) (filter excitation wave length: 485 nm, emission wave length: 535 nm). The fluorescent strength thus obtained is proportional to the number of RPMI-8866 cells bound to VCAM-1 and remaining on the plate. The binding rate of each test material in various concentrations was determined while the fluorescent strength of the test material-free well was determined to be 100%. The concentration IC50 for the 50% binding inhibition was calculated.

Take `O=C(N[C@@H](Cc1ccc(N2C(=O)c3ccccc3C2=O)cc1)C(=O)O)c1c(Cl)cccc1Cl` [Example 1]: the IC50 stood at 9.7 nM.

With `Cc1ccc2c(c1)C(=O)N(c1ccc(C[C@H](NC(=O)c3c(Cl)cccc3Cl)C(=O)O)cc1)C2=O` [Example 6], the IC50 is 11 nM.

For the molecule `O=C(N[C@@H](Cc1ccc(N2C(=O)c3ccc([N+](=O)[O-])cc3C2=O)cc1)C(=O)O)c1c(Cl)cccc1Cl` [Example 9], the IC50 was 24 nM.

Turning to `O=C(N[C@@H](Cc1ccc(N2C(=O)Cc3ccccc3C2=O)cc1)C(=O)O)c1c(Cl)cccc1Cl` [Example 15], the IC50 turned out to be 34 nM.

Regarding `O=C(N[C@@H](Cc1ccc(N2C(=O)c3cccc4cccc(c34)C2=O)cc1)C(=O)O)c1c(Cl)cccc1Cl` [Example 16], the IC50 stood at 21 nM.

On to `O=C(N[C@@H](Cc1ccc(N2Cc3ccccc3C2=O)cc1)C(=O)O)c1c(Cl)cccc1Cl` [Example 17], for which the IC50 came out at 140 nM.

On to `O=C(N[C@@H](Cc1ccc(N2CC=CC2=O)cc1)C(=O)O)c1c(Cl)cccc1Cl` [Example 25], for which the IC50 is 160 nM.

Take `O=C(N[C@@H](Cc1ccc(N2CC=CCC2=O)cc1)C(=O)O)c1c(Cl)cccc1Cl` [Example 26]: the IC50 stood at 80 nM.

In the case of `O=C(N[C@@H](Cc1ccc(N2CC=CCCC2=O)cc1)C(=O)O)c1c(Cl)cccc1Cl` [Example 27], the IC50 is 73 nM.

For the molecule `Cc1ccc(C)c2c1C(=O)N(c1ccc(C[C@H](NC(=O)c3c(Cl)cccc3Cl)C(=O)O)cc1)C2=O` [Example 30], the IC50 is 46 nM.

In the case of `CN(C)C(=O)c1ccc2c(c1)C(=O)N(c1ccc(C[C@H](NC(=O)c3c(Cl)cccc3Cl)C(=O)O)cc1)C2=O` [Example 33], the IC50 came out at 8.9 nM.

Turning to `O=C(N[C@@H](Cc1ccc(N2C(=O)C3=C(CCCC3)C2=O)cc1)C(=O)O)c1c(Cl)cccc1Cl` [Example 37], the IC50 turned out to be 5.8 nM.

Regarding `O=C(N[C@@H](Cc1ccc(N2C(=O)C3=C(SCCS3)C2=O)cc1)C(=O)O)c1c(Cl)cccc1Cl` [Example 38], the IC50 was 13 nM.

Take `O=C(N[C@@H](Cc1ccc(N2C(=O)[C@@H]3CCCC[C@H]3C2=O)cc1)C(=O)O)c1c(Cl)cccc1Cl` [Example 40]: the IC50 was found to be 18 nM.

For `O=C(N[C@@H](Cc1ccc(N2C(=O)[C@@H]3[C@H](C2=O)[C@@H]2C=C[C@H]3C2)cc1)C(=O)O)c1c(Cl)cccc1Cl` [Example 42], the IC50 came to 21 nM.

Turning to `CC1CCC2C(=O)N(c3ccc(C[C@H](NC(=O)c4c(Cl)cccc4Cl)C(=O)O)cc3)C(=O)C2C1` (some centres unmarked) [Example 43], the IC50 is 43 nM.

As to `O=C(N[C@@H](Cc1ccc(N2C(=O)[C@@H]3[C@H](C2=O)[C@@H]2C=C[C@H]3CC2)cc1)C(=O)O)c1c(Cl)cccc1Cl` [Example 44], the IC50 amounted to 39 nM.

Take `O=C(N[C@@H](Cc1ccc(N2C(=O)[C@H]3CC=CC[C@H]3C2=O)cc1)C(=O)O)c1c(Cl)cccc1Cl` [Example 45]: the IC50 worked out at 19 nM.

Consider `O=C(N[C@@H](Cc1ccc(N2C(=O)C3CC3C2=O)cc1)C(=O)O)c1c(Cl)cccc1Cl` (some centres unmarked) [Example 46], for which the IC50 turned out to be 42 nM.

In the case of `O=C(N[C@@H](Cc1ccc(N2C(=O)[C@H]3CC[C@H](c4ccccc4)C[C@H]3C2=O)cc1)C(=O)O)c1c(Cl)cccc1Cl` [Example 47], the IC50 stood at 92 nM.

For `O=C(N[C@@H](Cc1ccc(N2C(=O)CC3(CCCC3)CC2=O)cc1)C(=O)O)c1c(Cl)cccc1Cl` [Example 48], the IC50 is 21 nM.

Regarding `CC1(C)[C@H]2CC[C@]1(C)C(=O)N(c1ccc(C[C@H](NC(=O)c3c(Cl)cccc3Cl)C(=O)O)cc1)C2=O` [Example 49], the IC50 was 60 nM.

On to `Cc1cccc2c1C(=O)N(c1ccc(C[C@H](NC(=O)c3c(Cl)cncc3Cl)C(=O)O)cc1)C2=O` [Example 59], for which the IC50 is 10 nM.

For the molecule `Nc1cccc2c1C(=O)N(c1ccc(C[C@H](NC(=O)c3c(Cl)cccc3Cl)C(=O)O)cc1)C2=O` [Example 71], the IC50 is 230 nM.

In the case of `CCOc1cccc2c1C(=O)N(c1ccc(C[C@H](NC(=O)c3c(Cl)cccc3Cl)C(=O)O)cc1)C2=O` [Example 73], the IC50 was determined as 8.5 nM.

For the molecule `O=C(N[C@@H](Cc1ccc(N2C(=O)c3cccc(OCc4ccccc4)c3C2=O)cc1)C(=O)O)c1c(Cl)cccc1Cl` [Example 74], the IC50 was 110 nM.

On to `CCCCOc1cccc2c1C(=O)N(c1ccc(C[C@H](NC(=O)c3c(Cl)cccc3Cl)C(=O)O)cc1)C2=O` [Example 75], for which the IC50 amounted to 55 nM.

As to `O=C(N[C@@H](Cc1ccc(N2C(=O)c3ccc(O)cc3C2=O)cc1)C(=O)O)c1c(Cl)cccc1Cl` [Example 77], the IC50 worked out at 73 nM.

Consider `COc1ccc2c(c1)C(=O)N(c1ccc(C[C@H](NC(=O)c3c(Cl)cccc3Cl)C(=O)O)cc1)C2=O` [Example 78], for which the IC50 was 42 nM.

Consider `CCOc1ccc2c(c1)C(=O)N(c1ccc(C[C@H](NC(=O)c3c(Cl)cccc3Cl)C(=O)O)cc1)C2=O` [Example 79], for which the IC50 amounted to 86 nM.

On to `O=C(N[C@@H](Cc1ccc(N2C(=O)c3ccc(OCc4ccccc4)cc3C2=O)cc1)C(=O)O)c1c(Cl)cccc1Cl` [Example 80], for which the IC50 was 80 nM.

For the molecule `O=C(N[C@@H](Cc1ccc(N2C(=O)Cc3ccccc3CC2=O)cc1)C(=O)O)c1c(Cl)cccc1Cl` [Example 82], the IC50 was 900 nM.

Turning to `Cc1cccc2c1C(=O)N(c1ccc(C[C@H](NC(=O)c3c(Cl)cc(-c4nnn[nH]4)cc3Cl)C(=O)O)cc1)C2=O` [Example 83, (2S)-2-(2,6-dichloro-4-tetrazolyl-benzoylamino)-3-[4-(4-methyl-1,3-dioxo-1,3-dihydroisoindole-2-yl)phenyl] Propionic Acid], the IC50 worked out at 0.55 nM.

As to `Cc1cccc2c1C(=O)N(c1ccc(C[C@H](NC(=O)c3c(Cl)cc(NS(C)(=O)=O)cc3Cl)C(=O)O)cc1)C2=O` [Example 84], the IC50 is 0.6 nM.

As for `CC(=O)C1Cc2ccccc2C(=O)N1c1ccc(C[C@H](NC(=O)c2c(Cl)cccc2Cl)C(=O)O)cc1` (some centres unmarked) [Example 86], the IC50 came to 39 nM.
